Assay results from patent US4992292A, “Tris-hydroxymethyl alkane dicarboxylate extended esters as low calorie fat mimetics” (Nabisco Brands, Inc., priority 1990, dated 1991).

How the values were obtained:
[1] = rat, in vivo; cited from earlier work
[2] = tested on: pancreatic lipase; conditions: cited from earlier work
[3] = rats fed ad libitum; cited from earlier work
[4] = in vivo animal feeding study for caloric availability; set-up: species or system Sprague-Dawley rats; conditions: rats, diet of 50% fort and 21% test compound, 14 days; from weight gain and corn oil base line data
Source text: This example illustrates how the novel fat mimetics of this invention are screened for caloric availability by a carefully controlled in vivo animal feeding study.
An experimental relationship between total calories ingested and animal body weight gain is established by monitoring the body weight gain associated with consumption of a nutritionally balanced diet containing varying concentrations of a reference substance such as corn oil which has a known caloric availabilty. Correlations between total calories ingested and body weight gain are excellent (r=0.99).
Caloric availability of an unknown substance is evaluated by substituting a specific weight of the unknown substance for the reference substance and observing the body weight gain. The gain in body weight is equated to a total number of calories using the correlation previously established for the reference data. The estimated number of calories ingested are divided by the weight of unknown substance to give the apparent calories per gram for the unknown substance. Generally speaking, in these bioavailability studies, the degree of perianal pelt soiling correlates with reduced bioavailability.
The test animals are six-week-old male Sprague-Dawley rats obtained from the Portage, Michigan facility of the Charles River Laboratories, Inc. After acclimation for 15 days, the test duration is I4 days. […]

corn oil
caloric availability of reference [1]: 9.0 calories/gram

CCCCCCCC(=O)OCC(COC(=O)CCCCCCC)(COC(=O)CCCCCCC)COC(=O)CCCCCCC [pentaerythritol tetracaprylate]
hydrolysis by the enzyme pancreatic lipase [2]: not attacked, hydrolyzed | food consumption versus control animals on a normal diet [3]: consumed more than control animals

CCCCCCCC/C=C\CCCCCCCC(=O)OCC(C)(COC(=O)CCCCCCC/C=C\CCCCCCCC)COC(=O)CCCCCCC/C=C\CCCCCCCC [Example 1, 1,1,1-Tris hydroxymethylethane trioleate]
caloric availability upon being metabolized [4]: about 3.3 kcal/gram
